Laboratory results as given in patent US20210278391A1, “COMPOSITIONS AND METHODS FOR TREATING CARDIOVASCULAR AND METABOLIC CONDITIONS” (The Regents of the University of California, priority 2017, published 2021).
Entries after “also recorded” stand apart in the source; their conditions may differ.

Tests used:
BCKD [1] = assay: BCKD activity in tissues of ob/ob mice treated with BT2; format: in vivo, mouse; conditions: BT2 40 mg/kg/day oral gavage 10 weeks
Description: Animals were euthanized using carbon dioxide asphyxiation followed by cervical dislocation and then dissected. Blood was harvested by cardiac puncture and centrifuged to isolate plasma which was stored at −80° C. Acidified citrate dextrose was used as an anticoagulant. Immediately after blood collection, heart, liver, kidneys, and both hind leg quadriceps muscles were removed and snap frozen in liquid nitrogen.
Assays for the BCKD activity were carried out as prescribed previously (Tso et al. (2014), supra). Briefly, frozen tissues were thawed and homogenized in a homogenizing buffer (30 mM KPi, pH 7.5, 3 mM EDTA, 5 mM DTT, 1 mM KIC, 3% fetal bovine serum, 5% Triton X-100, and 1 μM leupeptin). Samples were spun at 25,000×g and supernatants were collected. Diluted samples were placed in 24-well assay plates with assay buffer (30 mMKPi, pH7.5, 0.4 mM CoA, 3 mM NAD, 5% fetal bovine serum, 2 mM thiamine diphosphate, 2 mM MgCl2, and 65 μg of human E3). Keto [1-^14C] isovalerate substrate was added and assay plates were incubated at 37° C. for 30 min. 20% TCA solution was added to stop the reactions. Assay plates were incubated further at 37° C. for 45 min. ^14CO2 trapped on 2 M NaOH soaked filter wicks was counted in a liquid scintillation counter.

[2] = Cardiac BCAA and BCKA assay post-TAC; format: in vivo, mouse; conditions: post-TAC heart, BT2 6 weeks
Description: BCAA and BCKA concentration in mouse heart tissue were determined by mass spectrometer using the following transition s: KIC 203.1 to 161.1 (retention time: 2.91 min); KIV 189.145 to 119.2 (retention time 2.84 min); KMV 203.065 to 174.2 (retention time 2.99 min); [^13C] KIV 194.109 to 120.1 (retention time: 2.84 min). Val 174.1/72.1 (retention time 3.2 min), Leu 188.1/86.1 (retention time 5.9 min), Ile 188.2/86.1 (retention time 5.7 min).

BCKD [3] = assay: BCKD activity in mouse cardiac tissue; format: in vivo; conditions: BT2 vs vehicle
Description: (§1) PP2Cm germ-line knockout (PP2Cm-KO) mice were generated as previously described (Lu et al. (2009), supra). PP2Cm KO mice were backcrossed for more than 8 generations into a C57BL/6 background. Wild type C57BL/6 mice and PP2Cm KO mice were housed at 22° C. with a 12-hour light, 12-hour dark cycle with free access to water and standard chow. Studies were performed with male mice. Human cohorts of dilated cardiomyopathy and controls were obtained from Columbia and Duke with Institutional Review Board approval. All animal procedures were carried out in accordance with the guidelines and protocols approved by the University of California at Los Angeles Institutional Animal Care and Use Committee (IACUC). Transaortic constriction (TAC) and cardiac echocardiography were performed as reported earlier 17 on mice from different genotypes between 14 and 16 weeks of age. […] Measurements of BCKD activity in mouse cardiac tissue and plasma BCKA/BCAA concentrations were performed as previously described (Tso et al. (2014), supra).

BCKD subunit E1α = assay: Immunoblot of phosphorylated BCKD subunit E1α in heart of BT2-treated mice; format: in vivo, mouse; conditions: wild-type mice, BT2 40 mg/kg/d oral gavage vs vehicle
Description: PP2Cm germ-line knockout (PP2Cm-KO) mice were generated as previously described (Lu et al. (2009), supra). PP2Cm KO mice were backcrossed for more than 8 generations into a C57BL/6 background. Wild type C57BL/6 mice and PP2Cm KO mice were housed at 22° C. with a 12-hour light, 12-hour dark cycle with free access to water and standard chow. Studies were performed with male mice. Human cohorts of dilated cardiomyopathy and controls were obtained from Columbia and Duke with Institutional Review Board approval. All animal procedures were carried out in accordance with the guidelines and protocols approved by the University of California at Los Angeles Institutional Animal Care and Use Committee (IACUC). Transaortic constriction (TAC) and cardiac echocardiography were performed as reported earlier 17 on mice from different genotypes between 14 and 16 weeks of age. […]
Proteins from heart tissue or cells were harvested in buffer (50 mM HEPES (pH7.4), 150 mM NaCl, 1% NP-40, 1 mM EDTA, 1 mM EGTA, 1 mM glycerophosphate, 2.5 mM sodium pyrophosphate, 1 mM Na3VO4, 20 mM NaF, 1 mM phenylmethylsulfonyl fluoride, 1 μg/mL of aprotinin, leupeptin, and pepstatin). […] Protein signals were detected using HRP conjugated secondary antibodies and enhanced chemiluminescence (ECL) western blotting detection regents (Pierce). […]

[4] = Plasma BCKA/BCAA concentrations in wild-type and PP2Cm-KO mice; format: in vivo, mouse; conditions: BT2 vs vehicle
Description: PP2Cm germ-line knockout (PP2Cm-KO) mice were generated as previously described (Lu et al. (2009), supra). PP2Cm KO mice were backcrossed for more than 8 generations into a C57BL/6 background. Wild type C57BL/6 mice and PP2Cm KO mice were housed at 22° C. with a 12-hour light, 12-hour dark cycle with free access to water and standard chow. Studies were performed with male mice. Human cohorts of dilated cardiomyopathy and controls were obtained from Columbia and Duke with Institutional Review Board approval. […]
BCKA Measurements in mouse Plasma: The method published by Olson et al. (2013), supra was followed with modification. […] The samples were re-suspended in 50:50 MeOH:5 mM NH4 acetate and analyzed by LC-MS/MS using a Sciex 3200 Q-Trap coupled to a Shimadzu Prominence LC. An Agilent C18 XDB 5 micron packing column (50×4.6 mm) was used for chromatography with the following conditions: Buffer A: 5 mM NH4 acetate, Buffer B: methanol, 0-2.0 min 50% B, 2.0-2.5 min gradient to 100% B, 2.5-3.5 min 100% B, 3.5-3.6 min gradient to 50% B, 3.6-4.6 min 50% B. The derivatized keto acids were detected with the mass spectrometer in positive MRM (multiple reaction monitoring) mode using the following transitions: KIC 203.1 to 161.1 (retention time: 2.91 min); KIV 189.145 to 119.2 (retention time 2.84 min); KMV 203.065 to 174.2 (retention time 2.99 min); [^13C] […]

[5] = system: pressure-overloaded heart; assay: Transaortic constriction (TAC) pressure overload, BT2 started one week before TAC, echocardiography; format: in vivo, mouse; conditions: 4 weeks after TAC, BT2 40 mg/kg/d oral gavage
Description: as §1
In mice, transverse aortic constriction (TAC) was performed as described (Gao et al. (2016) J Clin Invest. 126:195-206) in anesthetized (pentobarbital 60 mg/kg, IP) and ventilated mice (age 14-16 weeks) to induce hypertrophy and heart failure. […]

## O=C(O)c1sc2cc(Cl)ccc2c1Cl [BT2, 3,6-dichlorobenzo[b]thiophene-2-carboxylic acid]
BCKD [1]
  BCKD activity in different tissues including white adipose tissues: significantly enhanced
[2]
  cardiac intra-tissue concentrations of BCAA and BCKA: significant reduced
BCKD [3]; PP2Cm-KO mice
  enhancement of cardiac BCKD activity: ~9 fold
BCKD [3]; wild-type mice
  enhancement of cardiac BCKD activity: ~7 fold
BCKD subunit E1α
  phosphorylation of BCKD subunit E1α in heart: significantly reduced
[4]
  plasma BCAA level: modest impact; also recorded: reduced
  plasma BCKA level: markedly reduced
[5]
  chamber dilation: reduced
  left ventricular ejection fraction: significantly preserved
